Results: PMC10480310 (iScience, 2023)

Target: TEK receptor tyrosine kinase (Homo sapiens, UniProt Q02763)
Assay: phospho-TEK ELISA on lysates of Ang1-stimulated HUVECs
Format: cell-based

Chain of TEK receptor tyrosine kinase (Q02763 23-1124): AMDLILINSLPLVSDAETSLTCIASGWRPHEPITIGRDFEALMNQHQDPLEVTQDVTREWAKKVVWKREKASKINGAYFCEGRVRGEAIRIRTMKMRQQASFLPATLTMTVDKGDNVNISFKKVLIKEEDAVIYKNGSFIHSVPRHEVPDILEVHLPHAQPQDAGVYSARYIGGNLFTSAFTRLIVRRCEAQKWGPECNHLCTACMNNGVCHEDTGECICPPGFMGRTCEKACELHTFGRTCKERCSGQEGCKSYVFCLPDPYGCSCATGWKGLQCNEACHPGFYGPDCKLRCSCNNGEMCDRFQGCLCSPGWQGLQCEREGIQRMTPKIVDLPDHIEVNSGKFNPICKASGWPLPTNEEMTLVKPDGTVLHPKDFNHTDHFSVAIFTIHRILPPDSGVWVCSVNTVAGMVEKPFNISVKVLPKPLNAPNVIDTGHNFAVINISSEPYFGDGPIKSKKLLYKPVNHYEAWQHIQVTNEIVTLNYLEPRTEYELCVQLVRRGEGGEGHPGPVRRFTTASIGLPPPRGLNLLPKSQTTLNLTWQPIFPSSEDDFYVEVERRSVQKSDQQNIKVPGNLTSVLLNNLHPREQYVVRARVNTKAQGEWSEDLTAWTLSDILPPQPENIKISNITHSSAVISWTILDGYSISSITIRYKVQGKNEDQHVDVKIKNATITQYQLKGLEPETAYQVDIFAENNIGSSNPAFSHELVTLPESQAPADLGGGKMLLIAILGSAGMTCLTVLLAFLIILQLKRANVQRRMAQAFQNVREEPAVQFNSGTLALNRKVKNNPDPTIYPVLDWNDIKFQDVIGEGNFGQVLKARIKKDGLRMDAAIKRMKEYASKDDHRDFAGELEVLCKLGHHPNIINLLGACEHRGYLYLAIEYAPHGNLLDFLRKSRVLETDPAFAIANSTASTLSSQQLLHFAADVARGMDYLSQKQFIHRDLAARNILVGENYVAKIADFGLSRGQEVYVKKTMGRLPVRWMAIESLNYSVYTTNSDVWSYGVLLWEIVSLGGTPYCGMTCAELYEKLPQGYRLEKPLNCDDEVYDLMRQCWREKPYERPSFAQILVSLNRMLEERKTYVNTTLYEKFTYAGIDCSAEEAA

c1cc(-c2cnn3cc(-c4ccc(OCCN5CCCCC5)cc4)cnc23)ccn1 [DM, Dorsomorphin]
IC50: 4.72 µM
